In one test the target is Wee1-like protein kinase (Homo sapiens, UniProt P30291). As to the kind of experiment: Binding affinity to weel kinase.
A further test has as its target T1, DNA topoisomerase 1 (Homo sapiens, UniProt P11387).
T1 sequence (P11387 whole entry): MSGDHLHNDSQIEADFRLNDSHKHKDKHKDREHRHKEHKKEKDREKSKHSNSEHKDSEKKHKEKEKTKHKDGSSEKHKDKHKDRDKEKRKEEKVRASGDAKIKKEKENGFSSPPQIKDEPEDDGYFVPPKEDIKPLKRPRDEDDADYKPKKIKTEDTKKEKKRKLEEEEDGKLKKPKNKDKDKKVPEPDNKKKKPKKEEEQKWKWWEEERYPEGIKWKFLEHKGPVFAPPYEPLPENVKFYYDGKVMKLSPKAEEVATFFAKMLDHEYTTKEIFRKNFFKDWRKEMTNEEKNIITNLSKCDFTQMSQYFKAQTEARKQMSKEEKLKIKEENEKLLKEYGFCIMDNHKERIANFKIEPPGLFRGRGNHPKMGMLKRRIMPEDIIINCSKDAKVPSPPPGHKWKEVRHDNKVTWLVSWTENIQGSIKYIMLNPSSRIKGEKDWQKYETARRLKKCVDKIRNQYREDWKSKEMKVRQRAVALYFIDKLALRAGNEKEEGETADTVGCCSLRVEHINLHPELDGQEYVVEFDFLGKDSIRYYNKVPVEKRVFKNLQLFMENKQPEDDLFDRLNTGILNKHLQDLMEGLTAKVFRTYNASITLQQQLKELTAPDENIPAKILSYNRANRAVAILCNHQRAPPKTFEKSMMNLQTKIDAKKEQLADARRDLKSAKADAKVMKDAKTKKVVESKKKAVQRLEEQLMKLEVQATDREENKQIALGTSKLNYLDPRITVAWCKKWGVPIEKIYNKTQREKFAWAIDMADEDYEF
Description: Binding affinity to topoisomerase 1.

A further test has as its system NCI-H460. As to the kind of experiment: Cytotoxicity against human H460 cells assessed as stimulation of topoisomerase 1-mediated DNA cleavage. It counts as functional, cell-based.

Each structure is given as a SMILES string.

Chain of Wee1-like protein kinase (P30291 whole entry): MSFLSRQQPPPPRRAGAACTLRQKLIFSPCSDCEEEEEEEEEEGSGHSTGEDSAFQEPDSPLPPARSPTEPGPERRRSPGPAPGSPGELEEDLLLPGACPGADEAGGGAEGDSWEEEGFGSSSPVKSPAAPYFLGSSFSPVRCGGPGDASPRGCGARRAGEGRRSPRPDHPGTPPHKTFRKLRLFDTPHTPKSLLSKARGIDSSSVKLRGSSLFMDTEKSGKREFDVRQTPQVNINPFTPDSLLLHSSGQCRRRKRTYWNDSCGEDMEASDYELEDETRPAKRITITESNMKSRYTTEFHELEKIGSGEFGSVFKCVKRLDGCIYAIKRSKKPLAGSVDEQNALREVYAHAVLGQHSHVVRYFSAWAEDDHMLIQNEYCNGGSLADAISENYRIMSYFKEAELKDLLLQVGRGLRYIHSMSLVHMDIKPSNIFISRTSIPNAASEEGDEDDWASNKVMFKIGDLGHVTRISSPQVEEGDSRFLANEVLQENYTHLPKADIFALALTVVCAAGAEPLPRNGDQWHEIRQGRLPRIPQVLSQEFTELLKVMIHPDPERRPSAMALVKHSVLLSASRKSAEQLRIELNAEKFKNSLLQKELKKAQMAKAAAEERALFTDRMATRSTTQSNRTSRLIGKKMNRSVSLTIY

By Kd is commonly meant the equilibrium constant for the complex coming apart. Read a high Kd as a looser complex. Compound `Cc1cc(=O)c2c(O)cc3c(c2o1)C(=O)c1c(O)cc(O)cc1C3=O` [TOPOPYRONE C] gave a dissociation constant Kd at Wee1-like protein kinase of 0.00135 µM.

The IC50 is the midpoint of a concentration-inhibition curve. Take `CC[C@@]1(O)C(=O)OCc2c1cc1n(c2=O)Cc2c-1nc1ccccc1c2/C=N\OCCCO`: at DNA topoisomerase 1, binding was put at a Kd of 0.00265 µM. Besides, the IC50 in the test with NCI-H460 came out at 0.4 µM.

As to `CC[C@@]1(O)C(=O)OCc2c1cc1n(c2=O)Cc2c-1nc1ccccc1c2/C=N/c1ccccc1C`, the Kd on DNA topoisomerase 1 came to 0.000296 µM. Also, the IC50 in the test on NCI-H460 is 0.4 µM.

With `CC[C@@]1(O)C(=O)OCc2c1cc1n(c2=O)Cc2cc3c(CN(C)C)c(O)ccc3nc2-1` [TOPOTECAN], the IC50 in the test on NCI-H460 worked out at 1.38 µM.

The record behind these values is ChEMBL document CHEMBL1811875, “Inverse virtual screening of antitumor targets: pilot study on a small database of natural bioactive compounds” (J Nat Prod, 2011).
